Laboratory results published in the supplement of paper PMC8612539.
Values after ≈ are worked out from the molar mass of the structure shown.

Test system: Escherichia coli
Test: minimum inhibitory concentration (MIC)
Description: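 Broth microdilution MIC (Sensititre BOPO7F bovine plate, CLSI methods) of 19 antimicrobials against field isolates of P. multocida, M. haemolytica, H. somni (deep nasopharyngeal swabs) and E. coli, Enterococcus spp. (rectal swabs) from weaned dairy heifers. Incubation 16-24 h at 35 C. MIC is the lowest concentration preventing visible growth. Values with <= or > lie at the tested range limits. Trimethoprim-sulfamethoxazole is given as the trimethoprim component of a 1:19 mixture.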

CC1(C)S[C@@H]2[C@H](NC(=O)[C@H](N)c3ccccc3)C(=O)N2[C@H]1C(=O)O [Ampicillin]
Conditions | minimum inhibitory concentration [µg/mL]
isolate (source animal id): 8 | 4 (≈ 11.4 µM)
isolate (source animal id): 9 | > 16
isolate (source animal id): 10 | 2 (≈ 5.72 µM)
isolate (source animal id): 11 | 4 (≈ 11.4 µM)
isolate (source animal id): 12 | > 16
isolate (source animal id): 13 | > 16
isolate (source animal id): 14 | > 16
isolate (source animal id): 15 | 2 (≈ 5.72 µM)
isolate (source animal id): 16 | 4 (≈ 11.4 µM)
isolate (source animal id): 98 | 4 (≈ 11.4 µM)
isolate (source animal id): 99 | 4 (≈ 11.4 µM)
isolate (source animal id): 100 | 2 (≈ 5.72 µM)
isolate (source animal id): 101 | 1 (≈ 2.86 µM)
isolate (source animal id): 102 | 2 (≈ 5.72 µM)
isolate (source animal id): 103 | > 16
isolate (source animal id): 104 | 4 (≈ 11.4 µM)
isolate (source animal id): 105 | 4 (≈ 11.4 µM)
isolate (source animal id): 106 | 2 (≈ 5.72 µM)
isolate (source animal id): 107 | 2 (≈ 5.72 µM)
isolate (source animal id): 108 | 4 (≈ 11.4 µM)
isolate (source animal id): 109 | 2 (≈ 5.72 µM)
isolate (source animal id): 110 | 4 (≈ 11.4 µM)
isolate (source animal id): 111 | 2 (≈ 5.72 µM)
isolate (source animal id): 112 | 2 (≈ 5.72 µM)
isolate (source animal id): 113 | 4 (≈ 11.4 µM)
isolate (source animal id): 114 | 4 (≈ 11.4 µM)
isolate (source animal id): 115 | > 16
isolate (source animal id): 116 | 2 (≈ 5.72 µM)
isolate (source animal id): 117 | 2 (≈ 5.72 µM)
isolate (source animal id): 118 | 4 (≈ 11.4 µM)
isolate (source animal id): 119 | 8 (≈ 22.9 µM)
isolate (source animal id): 120 | > 16
isolate (source animal id): 121 | 2 (≈ 5.72 µM)
isolate (source animal id): 122 | 1 (≈ 2.86 µM)
isolate (source animal id): 123 | 2 (≈ 5.72 µM)
isolate (source animal id): 124 | 4 (≈ 11.4 µM)
isolate (source animal id): 125 | 2 (≈ 5.72 µM)
isolate (source animal id): 126 | 8 (≈ 22.9 µM)
isolate (source animal id): 127 | 2 (≈ 5.72 µM)
isolate (source animal id): 128 | > 16
isolate (source animal id): 129 | 4 (≈ 11.4 µM)
isolate (source animal id): 130 | 4 (≈ 11.4 µM)
isolate (source animal id): 131 | 2 (≈ 5.72 µM)
isolate (source animal id): 132 | > 16
isolate (source animal id): 133 | 4 (≈ 11.4 µM)
isolate (source animal id): 134 | 4 (≈ 11.4 µM)
isolate (source animal id): 135 | 2 (≈ 5.72 µM)
isolate (source animal id): 136 | 4 (≈ 11.4 µM)
isolate (source animal id): 137 | 4 (≈ 11.4 µM)
isolate (source animal id): 138 | 4 (≈ 11.4 µM)
isolate (source animal id): 139 | 1 (≈ 2.86 µM)
isolate (source animal id): 140 | 4 (≈ 11.4 µM)
isolate (source animal id): 141 | 4 (≈ 11.4 µM)
isolate (source animal id): 142 | 4 (≈ 11.4 µM)
isolate (source animal id): 143 | > 16
isolate (source animal id): 144 | > 16
isolate (source animal id): 145 | 8 (≈ 22.9 µM)
isolate (source animal id): 146 | 2 (≈ 5.72 µM)
isolate (source animal id): 147 | > 16
isolate (source animal id): 148 | 2 (≈ 5.72 µM)
isolate (source animal id): 149 | 2 (≈ 5.72 µM)
isolate (source animal id): 150 | 4 (≈ 11.4 µM)
isolate (source animal id): 151 | 1 (≈ 2.86 µM)
isolate (source animal id): 152 | 2 (≈ 5.72 µM)
isolate (source animal id): 153 | > 16
isolate (source animal id): 154 | 4 (≈ 11.4 µM)
isolate (source animal id): 155 | 2 (≈ 5.72 µM)
isolate (source animal id): 156 | > 16
isolate (source animal id): 157 | 4 (≈ 11.4 µM)
isolate (source animal id): 158 | 4 (≈ 11.4 µM)
isolate (source animal id): 159 | 2 (≈ 5.72 µM)
isolate (source animal id): 160 | 4 (≈ 11.4 µM)
isolate (source animal id): 161 | 2 (≈ 5.72 µM)
isolate (source animal id): 162 | > 16
isolate (source animal id): 163 | 4 (≈ 11.4 µM)
isolate (source animal id): 164 | 4 (≈ 11.4 µM)
isolate (source animal id): 165 | 2 (≈ 5.72 µM)
isolate (source animal id): 166 | 2 (≈ 5.72 µM)
isolate (source animal id): 167 | 4 (≈ 11.4 µM)
isolate (source animal id): 168 | 2 (≈ 5.72 µM)
isolate (source animal id): 169 | 4 (≈ 11.4 µM)
isolate (source animal id): 170 | 4 (≈ 11.4 µM)
isolate (source animal id): 171 | 4 (≈ 11.4 µM)
isolate (source animal id): 172 | 2 (≈ 5.72 µM)
isolate (source animal id): 173 | > 16
isolate (source animal id): 174 | > 16
isolate (source animal id): 175 | 4 (≈ 11.4 µM)
isolate (source animal id): 176 | > 16
isolate (source animal id): 177 | > 16
isolate (source animal id): 178 | 4 (≈ 11.4 µM)
isolate (source animal id): 179 | 4 (≈ 11.4 µM)
isolate (source animal id): 180 | 4 (≈ 11.4 µM)
isolate (source animal id): 181 | 2 (≈ 5.72 µM)
isolate (source animal id): 182 | 2 (≈ 5.72 µM)
isolate (source animal id): 183 | 4 (≈ 11.4 µM)
isolate (source animal id): 184 | 4 (≈ 11.4 µM)
isolate (source animal id): 185 | 4 (≈ 11.4 µM)
isolate (source animal id): 186 | 4 (≈ 11.4 µM)
isolate (source animal id): 187 | > 16
isolate (source animal id): 188 | > 16

CO/N=C(\C(=O)N[C@@H]1C(=O)N2C(C(=O)O)=C(CSC(=O)c3ccco3)CS[C@H]12)c1csc(N)n1 [Ceftiofur]
Conditions | minimum inhibitory concentration [µg/mL]
isolate (source animal id): 8 | 0.5 (≈ 0.955 µM)
isolate (source animal id): 9 | 1 (≈ 1.91 µM)
isolate (source animal id): 10 | ≤ 0.25
isolate (source animal id): 11 | ≤ 0.25
isolate (source animal id): 12 | 0.5 (≈ 0.955 µM)
isolate (source animal id): 13 | > 8
isolate (source animal id): 14 | > 8
isolate (source animal id): 15 | ≤ 0.25
isolate (source animal id): 16 | 0.5 (≈ 0.955 µM)
isolate (source animal id): 98 | 0.5 (≈ 0.955 µM)
isolate (source animal id): 99 | 0.5 (≈ 0.955 µM)
isolate (source animal id): 100 | ≤ 0.25
isolate (source animal id): 101 | ≤ 0.25
isolate (source animal id): 102 | 0.5 (≈ 0.955 µM)
isolate (source animal id): 103 | 0.5 (≈ 0.955 µM)
isolate (source animal id): 104 | ≤ 0.25
isolate (source animal id): 105 | 0.5 (≈ 0.955 µM)
isolate (source animal id): 106 | 0.5 (≈ 0.955 µM)
isolate (source animal id): 107 | ≤ 0.25
isolate (source animal id): 108 | ≤ 0.25
isolate (source animal id): 109 | ≤ 0.25
isolate (source animal id): 110 | 0.5 (≈ 0.955 µM)
isolate (source animal id): 111 | ≤ 0.25
isolate (source animal id): 112 | ≤ 0.25
isolate (source animal id): 113 | 0.5 (≈ 0.955 µM)
isolate (source animal id): 114 | 0.5 (≈ 0.955 µM)
isolate (source animal id): 115 | 4 (≈ 7.64 µM)
isolate (source animal id): 116 | 0.5 (≈ 0.955 µM)
isolate (source animal id): 117 | ≤ 0.25
isolate (source animal id): 118 | 0.5 (≈ 0.955 µM)
isolate (source animal id): 119 | 1 (≈ 1.91 µM)
isolate (source animal id): 120 | 0.5 (≈ 0.955 µM)
isolate (source animal id): 121 | 0.5 (≈ 0.955 µM)
isolate (source animal id): 122 | 0.5 (≈ 0.955 µM)
isolate (source animal id): 123 | ≤ 0.25
isolate (source animal id): 124 | 0.5 (≈ 0.955 µM)
isolate (source animal id): 125 | 0.5 (≈ 0.955 µM)
isolate (source animal id): 126 | 0.5 (≈ 0.955 µM)
isolate (source animal id): 127 | 0.5 (≈ 0.955 µM)
isolate (source animal id): 128 | 8 (≈ 15.3 µM)
isolate (source animal id): 129 | 0.5 (≈ 0.955 µM)
isolate (source animal id): 130 | 0.5 (≈ 0.955 µM)
isolate (source animal id): 131 | 0.5 (≈ 0.955 µM)
isolate (source animal id): 132 | > 8
isolate (source animal id): 133 | 0.5 (≈ 0.955 µM)
isolate (source animal id): 134 | 0.5 (≈ 0.955 µM)
isolate (source animal id): 135 | 0.5 (≈ 0.955 µM)
isolate (source animal id): 136 | 0.5 (≈ 0.955 µM)
isolate (source animal id): 137 | 0.5 (≈ 0.955 µM)
isolate (source animal id): 138 | ≤ 0.25
isolate (source animal id): 139 | ≤ 0.25
isolate (source animal id): 140 | 0.5 (≈ 0.955 µM)
isolate (source animal id): 141 | 0.5 (≈ 0.955 µM)
isolate (source animal id): 142 | 0.5 (≈ 0.955 µM)
isolate (source animal id): 143 | 2 (≈ 3.82 µM)
isolate (source animal id): 144 | 8 (≈ 15.3 µM)
isolate (source animal id): 145 | 0.5 (≈ 0.955 µM)
isolate (source animal id): 146 | ≤ 0.25
isolate (source animal id): 147 | 8 (≈ 15.3 µM)
isolate (source animal id): 148 | ≤ 0.25
isolate (source animal id): 149 | ≤ 0.25
isolate (source animal id): 150 | 0.5 (≈ 0.955 µM)
isolate (source animal id): 151 | ≤ 0.25
isolate (source animal id): 152 | ≤ 0.25
isolate (source animal id): 153 | ≤ 0.25
isolate (source animal id): 154 | 0.5 (≈ 0.955 µM)
isolate (source animal id): 155 | ≤ 0.25
isolate (source animal id): 156 | 8 (≈ 15.3 µM)
isolate (source animal id): 157 | 0.5 (≈ 0.955 µM)
isolate (source animal id): 158 | 0.5 (≈ 0.955 µM)
isolate (source animal id): 159 | ≤ 0.25
isolate (source animal id): 160 | ≤ 0.25
isolate (source animal id): 161 | ≤ 0.25
isolate (source animal id): 162 | 8 (≈ 15.3 µM)
isolate (source animal id): 163 | 0.5 (≈ 0.955 µM)
isolate (source animal id): 164 | ≤ 0.25
isolate (source animal id): 165 | ≤ 0.25
isolate (source animal id): 166 | ≤ 0.25
isolate (source animal id): 167 | 0.5 (≈ 0.955 µM)
isolate (source animal id): 168 | ≤ 0.25
isolate (source animal id): 169 | 0.5 (≈ 0.955 µM)
isolate (source animal id): 170 | 0.5 (≈ 0.955 µM)
isolate (source animal id): 171 | 0.5 (≈ 0.955 µM)
isolate (source animal id): 172 | ≤ 0.25
isolate (source animal id): 173 | 0.5 (≈ 0.955 µM)
isolate (source animal id): 174 | 0.5 (≈ 0.955 µM)
isolate (source animal id): 175 | 0.5 (≈ 0.955 µM)
isolate (source animal id): 176 | 0.5 (≈ 0.955 µM)
isolate (source animal id): 177 | 8 (≈ 15.3 µM)
isolate (source animal id): 178 | 0.5 (≈ 0.955 µM)
isolate (source animal id): 179 | ≤ 0.25
isolate (source animal id): 180 | 0.5 (≈ 0.955 µM)
isolate (source animal id): 181 | ≤ 0.25
isolate (source animal id): 182 | 0.5 (≈ 0.955 µM)
isolate (source animal id): 183 | 0.5 (≈ 0.955 µM)
isolate (source animal id): 184 | 0.5 (≈ 0.955 µM)
isolate (source animal id): 185 | 0.5 (≈ 0.955 µM)
isolate (source animal id): 186 | 0.5 (≈ 0.955 µM)
isolate (source animal id): 187 | ≤ 0.25
isolate (source animal id): 188 | > 8
